Legend:
Assay type in all cases: cell-based
A. baumanii JMI 2659 = assay: MIC, antibacterial and synergistic activity; conditions: substance alone
Description: (§1) In the Tables 10-12, compounds of the present invention were tested in combination with various antibiotics against metallo β-lactamase producing bacteria.

E. cloacae JMI 36 = assay: MIC, antibacterial and synergistic activity; conditions: substance alone
Description: as §1

E. coli ATCC 25922 = assay: MIC, antibacterial and synergistic activity
Description: as §1

E. coli JMI 10767 = assay: MIC, antibacterial and synergistic activity; conditions: substance alone
Description: as §1

E. coli JMI 2671 = assay: MIC, antibacterial and synergistic activity; conditions: substance alone
Description: as §1

E. coli JMI 2692 = assay: MIC, antibacterial and synergistic activity; conditions: substance alone
Description: as §1

K. pneumo JMI 2693 = assay: MIC, antibacterial and synergistic activity; conditions: substance alone
Description: as §1

K. pneumo JMI 2697 = assay: MIC, antibacterial and synergistic activity; conditions: substance alone
Description: as §1

K. pneumo JMI 2699 = assay: MIC, antibacterial and synergistic activity; conditions: substance alone
Description: as §1

P. aerug JMI 149 = assay: MIC, antibacterial and synergistic activity; conditions: substance alone
Description: as §1

E. coli JMI 4103 = assay: MIC, antibacterial and synergistic activity; conditions: substance alone
E. coli JMI 4080 = assay: MIC, antibacterial and synergistic activity; conditions: substance alone
E. coli JMI 2665 = assay: MIC, antibacterial and synergistic activity; conditions: substance alone
K. pneumo JMI 4109 = assay: MIC, antibacterial and synergistic activity; conditions: substance alone
K. pneumo JMI 2673 = assay: MIC, antibacterial and synergistic activity; conditions: substance alone
K. pneumo JMI 2674 = assay: MIC, antibacterial and synergistic activity; conditions: substance alone
K. pneumo JMI 4088 = assay: MIC, antibacterial and synergistic activity; conditions: substance alone
K. pneumo JMI 4106 = assay: MIC, antibacterial and synergistic activity; conditions: substance alone
K. pneumo JMI 2681 = assay: MIC, antibacterial and synergistic activity; conditions: substance alone
P. aerug JMI 2686 = assay: MIC, antibacterial and synergistic activity; conditions: substance alone
E. coli JMI 10768 = assay: MIC, antibacterial and synergistic activity; conditions: substance alone
E. coli JMI 10770 = assay: MIC, antibacterial and synergistic activity; conditions: substance alone
E. coli JMI 11103 = assay: MIC, antibacterial and synergistic activity; conditions: substance alone
[1] = tested on: metallo β-lactamase producing bacteria; assay: MIC in combination with various antibiotics against metallo β-lactamase producing bacteria (Tables 10-12); conditions: substance alone
Description: as §1

Compound: CC(C)(O/N=C(\C(=O)N[C@@H]1C(=O)N2C(C(=O)[O-])=C(C[n+]3ccccc3)CS[C@H]12)c1csc(N)n1)C(=O)O [Ceftazidime, ceftazidime]
- MIC alone (A. baumanii JMI 2659; A. baumanii JMI 2659, Ges-14 (Cpase)): 512 µg/mL
- MIC alone (A. baumanii JMI 2659; A. baumanii JMI 2659, enzyme Ges-14 (Cpase)): 512 µg/mL
- MIC alone (E. cloacae JMI 36; E. cloacae JMI 36, P99): 128 µg/mL
- MIC alone (E. cloacae JMI 36; E. cloacae JMI 36, enzyme P99): 128 µg/mL
- MIC alone (E. coli ATCC 25922; E. coli ATCC 25922, enzyme Wt; substance alone): 0.25 µg/mL
- MIC alone (E. coli ATCC 25922; E. coli ATCC 25922; enzyme Wt; substance alone): 0.25 µg/mL
- MIC alone (E. coli JMI 10767; E. coli JMI 10767, Wt): ≤1 µg/mL
- MIC alone (E. coli JMI 10767; E. coli JMI 10767, enzyme Wt): ≤1 µg/mL
- MIC alone (E. coli JMI 2671; E. coli JMI 2671, VIM-19 (Cpase)): 64 µg/mL
- MIC alone (E. coli JMI 2671; E. coli JMI 2671, enzyme VIM-19 (Cpase)): 64 µg/mL
- MIC alone (E. coli JMI 2692; E. coli JMI 2692, NDM-1, TEM-1, CTX-M-15): >512 µg/mL
- MIC alone (E. coli JMI 2692; E. coli JMI 2692, enzyme NDM-1, TEM-1, CTX-M-15): >512 µg/mL
- MIC alone (K. pneumo JMI 2693; K. pneumo JMI 2693, NDM-1 (Cpase)): >512 µg/mL
- MIC alone (K. pneumo JMI 2693; K. pneumo JMI 2693, enzyme NDM-1 (Cpase)): >512 µg/mL
- MIC alone (K. pneumo JMI 2697; K. pneumo JMI 2697, IMP-4 (Cpase)): >512 µg/mL
- MIC alone (K. pneumo JMI 2697; K. pneumo JMI 2697, enzyme IMP-4 (Cpase)): >512 µg/mL
- MIC alone (K. pneumo JMI 2699; K. pneumo JMI 2699, VIM-1, CTX-M3): >512 µg/mL
- MIC alone (K. pneumo JMI 2699; K. pneumo JMI 2699, enzyme VIM-1, CTX-M3): >512 µg/mL
- MIC alone (P. aerug JMI 149; P. aerug JMI 149, Bla+++D+): 256 µg/mL
- MIC alone (P. aerug JMI 149; P. aerug JMI 149, enzyme Bla+++D+): 256 µg/mL
- MIC alone (E. coli JMI 4103; E. coli JMI 4103, KPC-2, Tem-1, CMY-Type): >512 µg/mL
- MIC alone (E. coli JMI 4103; E. coli JMI 4103, enzyme KPC-2, Tem-1, CMY-Type): >512 µg/mL
- MIC alone (E. coli JMI 4080; E. coli JMI 4080, Tem-10): 64 µg/mL
- MIC alone (E. coli JMI 4080; E. coli JMI 4080, enzyme Tem-10): 64 µg/mL
- MIC alone (E. coli JMI 2665; E. coli JMI 2665, CMY-2 (Plasmid Cpase)): 8 µg/mL
- MIC alone (E. coli JMI 2665; E. coli JMI 2665, enzyme CMY-2 (Plasmid Cpase)): 8 µg/mL
- MIC alone (K. pneumo JMI 4109; K. pneumo JMI 4109, SHV-1, SHV-12): 8 µg/mL
- MIC alone (K. pneumo JMI 4109; K. pneumo JMI 4109, enzyme SHV-1, SHV-12): 8 µg/mL
- MIC alone (K. pneumo JMI 2673; K. pneumo JMI 2673, CTX-M14 (ESBL)): 32 µg/mL
- MIC alone (K. pneumo JMI 2673; K. pneumo JMI 2673, enzyme CTX-M14 (ESBL)): 32 µg/mL
- MIC alone (K. pneumo JMI 2674; K. pneumo JMI 2674, CTX-M15 (ESBL)): 512 µg/mL
- MIC alone (K. pneumo JMI 2674; K. pneumo JMI 2674, enzyme CTX-M15 (ESBL)): 512 µg/mL
- MIC alone (K. pneumo JMI 4088; K. pneumo JMI 4088, KPC-3 (Cpase)): >512 µg/mL
- MIC alone (K. pneumo JMI 4088; K. pneumo JMI 4088, enzyme KPC-3 (Cpase)): >512 µg/mL
- MIC alone (K. pneumo JMI 4106; K. pneumo JMI 4106, KPC-3, TEM-1, SHV-12, SHV-141): >512 µg/mL
- MIC alone (K. pneumo JMI 4106; K. pneumo JMI 4106, enzyme KPC-3, TEM-1, SHV-12, SHV-141): >512 µg/mL
- MIC alone (K. pneumo JMI 2681; K. pneumo JMI 2681, Oxa-48 (Cpase)): 512 µg/mL
- MIC alone (K. pneumo JMI 2681; K. pneumo JMI 2681, enzyme Oxa-48 (Cpase)): 512 µg/mL
- MIC alone (P. aerug JMI 2686; P. aerug JMI 2686, KPC-2 (Cpase)): 512 µg/mL
- MIC alone (P. aerug JMI 2686; P. aerug JMI 2686, enzyme KPC-2 (Cpase)): 512 µg/mL
- MIC alone (E. coli JMI 10768; E. coli JMI 10768, CTX-M15 (Weak ESBL)): 8 µg/mL
- MIC alone (E. coli JMI 10768; E. coli JMI 10768, enzyme CTX-M15 (Weak ESBL)): 8 µg/mL
- MIC alone (E. coli JMI 10770; E. coli JMI 10770, CTX-M15 (Hyper ESBL)): 64 µg/mL
- MIC alone (E. coli JMI 10770; E. coli JMI 10770, enzyme CTX-M15 (Hyper ESBL)): 64 µg/mL
- MIC alone (E. coli JMI 11103; E. coli JMI 11103, CTX-M15 (Intermediate ESBL)): 32 µg/mL
- MIC alone (E. coli JMI 11103; E. coli JMI 11103, enzyme CTX-M15 (Intermediate ESBL)): 32 µg/mL
- MIC alone ([1]; Citrobacter freundii isolate 49469, NDM-1): >256 µg/mL
- MIC alone ([1]; Enterobacter aerogenes isolate 8397, VIM-1): >256 µg/mL
- MIC alone ([1]; Enterobacter aerogenes isolate 47683, VIM-12): 256 µg/mL
- MIC alone ([1]; Enterobacter cloacae isolate 4, VIM-6): 256 µg/mL
- MIC alone ([1]; Enterobacter cloacae isolate 10, IMP-26): >256 µg/mL
- MIC alone ([1]; Enterobacter cloacae isolate 25, IMP-4): >256 µg/mL
- MIC alone ([1]; Enterobacter cloacae isolate 1068, VIM-2): 128 µg/mL
- MIC alone ([1]; Enterobacter cloacae isolate 1280, VIM-5): 64 µg/mL
- MIC alone ([1]; Enterobacter cloacae isolate 1471, VIM-1): >256 µg/mL
- MIC alone ([1]; Enterobacter cloacae isolate 1874, IMP-21): 32 µg/mL
- MIC alone ([1]; Enterobacter cloacae isolate 3686, IMP-1): >256 µg/mL
- MIC alone ([1]; Enterobacter cloacae isolate 53477, NDM-1): >256 µg/mL
- MIC alone ([1]; Escherichia coli isolate 13, IMP-1): 256 µg/mL
- MIC alone ([1]; Escherichia coli isolate 17, NDM-1): >256 µg/mL
- MIC alone ([1]; Escherichia coli isolate 49, NDM-1): >256 µg/mL
- MIC alone ([1]; Escherichia coli isolate 53749, NDM-1): >256 µg/mL
- MIC alone ([1]; Klebsiella oxytoca isolate 24825, IMP-26): >256 µg/mL
- MIC alone ([1]; Klebsiella oxytoca isolate 31141, VIM-23): 128 µg/mL
- MIC alone ([1]; Klebsiella pneumoniae isolate 16, VIM-5): >256 µg/mL
- MIC alone ([1]; Klebsiella pneumoniae isolate 38, NDM-1): >256 µg/mL
- MIC alone ([1]; Providencia stuartii isolate 26582, VIM-1): >256 µg/mL
- MIC alone ([1]; Serratia marcescens isolate 35, IMP-4): 64 µg/mL
- MIC alone ([1]; Serratia marcescens isolate 36098, IMP-19): 128 µg/mL
